Source: patent publication US8822217B2, “Method for cultivating tendon cells from pluripotent cells of mesenchymal origin” (Angewandte Biotechnologie GmbH, priority 2007, dated 2014)

Experiments:
[1] = tested on: pluripotent cells of mesenchymal origin; experiment: Cell morphology of the cell culture after treatment; format: cell-based, human
Method: In order to isolate pluripotent cells of mesenchymal origin, small pieces of Substantia spongiosa, biopsied from the human wing of ilium were digested at 37° C. in 2 ml of DMEM (Dulbecco's modified eagles medium with 4.5 g/l of glucose) with 2.5 mg/ml collagenase for 3 h. The cell pellet obtained from the digested pieces by multiple centrifugation was inoculated in a density of 200000 cells/cm^2 and was incubated for 24 h in DMEM with 10% foetal calf serum (FCS) and specifically at 37° C., 5% C02 and 100% humidity. One preparation gives a growth area of 60 to 180 cm^2. The culture medium was changed twice a week. Before the cells are confluent after six days, they are passaged in the usual way. The first passage is cultivated further under the standard conditions described until the logarithmic growth phase is reached after three days. The culture medium is then exchanged for a medium which was adjusted to an osmolarity of 360 mosmol/l with the aid of saccharose and, in addition to DMEM mixed with 10% FCS, contains 50 μg/ml of ascorbic acid-2-phosphate. The cells are incubated for four days in this culture medium. […] In addition, the secretion of type I collagen and its cross-linking increases. […]

[2] = tested on: pluripotent cells of mesenchymal origin; experiment: Western Blot analysis for the collagen production; format: cell-based, human; settings: for secretion of type I collagen (double band at 130 kD): vs untreated sample a; for cross-linking of the collagen (area of 400 kD): compared to sample b
Method: In order to isolate pluripotent cells of mesenchymal origin, small pieces of Substantia spongiosa, biopsied from the human wing of ilium were digested at 37° C. in 2 ml of DMEM (Dulbecco's modified eagles medium with 4.5 g/l of glucose) with 2.5 mg/ml collagenase for 3 h. The cell pellet obtained from the digested pieces by multiple centrifugation was inoculated in a density of 200000 cells/cm^2 and was incubated for 24 h in DMEM with 10% foetal calf serum (FCS) and specifically at 37° C., 5% C02 and 100% humidity. One preparation gives a growth area of 60 to 180 cm^2. The culture medium was changed twice a week. Before the cells are confluent after six days, they are passaged in the usual way. The first passage is cultivated further under the standard conditions described until the logarithmic growth phase is reached after three days. The culture medium is then exchanged for a medium which was adjusted to an osmolarity of 360 mosmol/l with the aid of saccharose and, in addition to DMEM mixed with 10% FCS, contains 50 μg/ml of ascorbic acid-2-phosphate. The cells are incubated for four days in this culture medium. […] In addition, the secretion of type I collagen and its cross-linking increases. Following stimulation of the cells to enhanced collagen secretion under hyperosmolar conditions, they are cultivated in a standard culture medium for a further 12 h in order to then be investigated.

[3] = sample c: treatment under hyperosmolar conditions
[4] = sample c: treatment under hyperosmolar conditions, listed as ascorbic-2-phosphate

Structure (SMILES): O=C1O[C@H]([C@@H](O)CO)C(O)=C1OP(=O)(O)O [ascorbic acid-2-phosphate]
- change in the cellular phenotype ([1]; 50 μg/ml, hyperosmolar conditions (360 mosmol/l with saccharose), four days): the cells become fibroblastic
- cell structure (FIG. 1 vs FIG. 2) ([1]; treatment with ascorbic-2-phosphate, polygonal structure before treatment): fibroblastic structures
- secretion of type I collagen (double band at 130 kD) ([2]; sample b: treatment without hyperosmolar conditions): significant increase
- resistance to digestion with pepsin [2, 3]: more resistant to digestion with pepsin
- cross-linking of the collagen (area of 400 kD) [2, 3]: increases
- cross-linking of the collagen (area of 400 kD) [2, 4]: enhanced cross-linking
- secretion of type I collagen (double band at 130 kD) [2, 3]: increases
- secretion of type I collagen (double band at 130 kD) [2, 4]: significant increase
